Patent US10301263B2, “Anticonvulsant compound” (Royal Holloway and Bedford New College, priority 2014, dated 2019)

Columns and labels:
[1] = target: T1, AMPA receptor GluA2/3 (Homo sapiens, UniProt P42262+P42263); test: Electrophysiology of Xenopus laevis oocytes expressing GluA2/3; type: cell-based; conditions: for inhibition of AMPA receptors (subunit GluA2/3) compared to decanoic acid: dose curve vs decanoic acid; for reduction of AMPA-R generated current in comparison to the control / reduction of AMPA-R generated current in comparison to decanoic acid / reduction of AMPA-R generated current in comparison to 4-BCCA: GluA2/3, 1 mM; for reduction of AMPA-R generated current in comparison to the control: P<0.05 for #175, #177, P<0.001 for the others; for reduction of AMPA-R generated current in comparison to decanoic acid: P<0.01 for #181, #182, #184, P<0.001 for #176, #185; for reduction of AMPA-R generated current in comparison to 4-BCCA: P<0.05 for #181, #184, P<0.01 for #182, P<0.001 for #176, #185
T1 construct: expressed in transfected cells; host or cells: Xenopus laevis oocytes injected with cRNA
Method: (§1) The AMPA receptor (flip isoform) cDNAs inserted in a SP6 polymerase expression vector (pSP6T) were a generous gift from Prof Ralf Schoepfer (NPP, UCL). RNA was transcribed in vitro from Mlu I linearized transcripts using the SP6 Promega RiboMax RNA synthesis kit (Madison, Wis.) according to manufacturer's protocols except for the addition of 0.75 mM capping nucleotide m7G(5′)ppp(5′)G (Promega, Madison, Wis.) and 1.6 mM GTP. cRNA concentrations and integrity were estimated by the intensity of fluorescence bands in RNA denaturating gels. AMPA receptor cRNAs were mixed in a nominal 1:1 ratio and approximately 5 ng was injected per oocyte.
Xenopus laevis oocytes were purchased from the European Xenopus Resource Centre, University of Portsmouth. Stage V to VI oocytes were mechanically dissected and then subjected to gentle shaking for approximately 30-50 min at room temperature with modified Barth's solution (in mM): NaCl 88, KCl 1, NaHCO3 2.4, MgCl2 0.82, CaCl2 0.77, Tris-Cl 15, adjusted to pH 7.4 with NaOH (Sigma-Aldrich, UK), supplemented with 50 IU/ml penicillin and 50 μg/ml streptomycin (Invitrogen, UK) and 50 μg/ml tetracycline (Sigma-Aldrich, UK) and 1% collagenase (type 1A). Healthy oocytes were manually defolliculated and the injections of cRNA for homomeric subunits alone (GluA1), or heteromeric mixtures of two subunits together (GluA2/GluA3) were made using an automated Drummond Nanoinject II injector (Broomall, Pa.). The oocytes were then incubated at 17° C. in modified Barth's solution for at least 48 hours before use in electrophysiological recordings.
Experiments were performed at room temperature (approximately 21-23° C.). An oocyte was placed in a recording chamber (0.3-0.5 ml volume) and perfused with ND96 solution (96 mM NaCl, 2 mM KCl, 1.8 mM CaCl2, 1 mM MgCl2, 5 mM HEPES, with pH adjusted to 7.5). Current and voltage electrodes were filled with 300 mM KCl and made from thin-walled borosilicate glass (GC150TF-7.5, Harvard Apparatus, Kent, UK) using a PC-10 electrode puller (Narashige Instruments, Japan) and had resistances of 0.5-2 MΩ. Oocytes were voltage-clamped to a holding potential of −50 mV or −60 mV using a Turbo TEC-03 amplifier (npi electronics, Tamm, Germany). Compounds were dissolved in distilled water or DMSO and dissolved in bathing solution to achieve their final concentrations during experiments, and were applied under gravity flow during the experiment by using a multi-valve perfusion system (VC3-8C, ALA Scientific Instruments, Farmingdale, N.Y.). The bath solutions were perfused at a rate of 10 ml/min. Recordings were filtered at 20 Hz and digitized at 100 Hz (Digidata 1322A, Molecular Devices, Sunnyvale, Calif.) before recording to computer hard disk. Data acquisition was performed using the Windows PC based programme, WinEDR v3.0.6 (John Dempster, University of Strathclyde, UK).
The data from the electrophysiology experiments were analyzed using GraphPad Prism software (GraphPad software, San Diego Calif., USA) and SPSS (IBM United Kingdom Limited). Statistical analysis was performed using ANOVA with Dunnett's or Tukey post hoc test, pair t-test or un-pair t-test. For the behavior experiment, the nonparametric test, Mann-Whitney test were used. Differences were considered as significant at P<0.05. […]

[2] = target: T2, AMPA receptor GluA1/2 (Homo sapiens, UniProt P42261+P42262); test: Electrophysiology of Xenopus laevis oocytes expressing GluA1/2; type: cell-based; conditions: IC50 comparison, FIG. 2C
T2 construct: expressed in transfected cells; host or cells: Xenopus laevis oocytes injected with cRNA
Method: as §1
Xenopus laevis oocytes were purchased from the European Xenopus Resource Centre, University of Portsmouth. Stage V to VI oocytes were mechanically dissected and then subjected to gentle shaking for approximately 30-50 min at room temperature with modified Barth's solution (in mM): NaCl 88, KCl 1, NaHCO3 2.4, MgCl2 0.82, CaCl2 0.77, Tris-Cl 15, adjusted to pH 7.4 with NaOH (Sigma-Aldrich, UK), supplemented with 50 IU/ml penicillin and 50 μg/ml streptomycin (Invitrogen, UK) and 50 μg/ml tetracycline (Sigma-Aldrich, UK) and 1% collagenase (type 1A). […]
The data from the electrophysiology experiments were analyzed using GraphPad Prism software (GraphPad software, San Diego Calif., USA) and SPSS (IBM United Kingdom Limited). […]

T1 sequence (P42262 22-883 isoform P42262-2 limits assumed): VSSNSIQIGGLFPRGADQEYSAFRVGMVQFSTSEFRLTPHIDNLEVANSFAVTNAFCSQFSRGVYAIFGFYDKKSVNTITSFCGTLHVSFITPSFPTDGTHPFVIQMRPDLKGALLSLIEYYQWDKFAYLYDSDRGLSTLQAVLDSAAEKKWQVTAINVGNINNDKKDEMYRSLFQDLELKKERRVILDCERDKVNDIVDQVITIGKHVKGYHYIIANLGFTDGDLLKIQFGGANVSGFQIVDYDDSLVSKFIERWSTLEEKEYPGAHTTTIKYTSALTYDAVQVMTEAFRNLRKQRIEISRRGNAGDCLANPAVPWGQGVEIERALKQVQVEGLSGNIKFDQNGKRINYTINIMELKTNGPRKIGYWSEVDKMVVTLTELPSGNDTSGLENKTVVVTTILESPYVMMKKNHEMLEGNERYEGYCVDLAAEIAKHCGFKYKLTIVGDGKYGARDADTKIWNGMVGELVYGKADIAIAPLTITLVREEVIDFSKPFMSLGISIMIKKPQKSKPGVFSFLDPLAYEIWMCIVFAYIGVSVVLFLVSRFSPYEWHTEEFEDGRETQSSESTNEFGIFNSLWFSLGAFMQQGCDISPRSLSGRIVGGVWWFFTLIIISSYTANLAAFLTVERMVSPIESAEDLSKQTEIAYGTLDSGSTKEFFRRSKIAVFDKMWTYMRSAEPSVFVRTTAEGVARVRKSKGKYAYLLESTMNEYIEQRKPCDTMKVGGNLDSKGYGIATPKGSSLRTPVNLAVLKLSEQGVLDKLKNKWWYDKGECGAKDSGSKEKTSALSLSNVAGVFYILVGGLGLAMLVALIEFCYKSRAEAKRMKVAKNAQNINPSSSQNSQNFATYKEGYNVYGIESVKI
T1 sequence (P42263 29-894 isoform P42263-2 limits assumed): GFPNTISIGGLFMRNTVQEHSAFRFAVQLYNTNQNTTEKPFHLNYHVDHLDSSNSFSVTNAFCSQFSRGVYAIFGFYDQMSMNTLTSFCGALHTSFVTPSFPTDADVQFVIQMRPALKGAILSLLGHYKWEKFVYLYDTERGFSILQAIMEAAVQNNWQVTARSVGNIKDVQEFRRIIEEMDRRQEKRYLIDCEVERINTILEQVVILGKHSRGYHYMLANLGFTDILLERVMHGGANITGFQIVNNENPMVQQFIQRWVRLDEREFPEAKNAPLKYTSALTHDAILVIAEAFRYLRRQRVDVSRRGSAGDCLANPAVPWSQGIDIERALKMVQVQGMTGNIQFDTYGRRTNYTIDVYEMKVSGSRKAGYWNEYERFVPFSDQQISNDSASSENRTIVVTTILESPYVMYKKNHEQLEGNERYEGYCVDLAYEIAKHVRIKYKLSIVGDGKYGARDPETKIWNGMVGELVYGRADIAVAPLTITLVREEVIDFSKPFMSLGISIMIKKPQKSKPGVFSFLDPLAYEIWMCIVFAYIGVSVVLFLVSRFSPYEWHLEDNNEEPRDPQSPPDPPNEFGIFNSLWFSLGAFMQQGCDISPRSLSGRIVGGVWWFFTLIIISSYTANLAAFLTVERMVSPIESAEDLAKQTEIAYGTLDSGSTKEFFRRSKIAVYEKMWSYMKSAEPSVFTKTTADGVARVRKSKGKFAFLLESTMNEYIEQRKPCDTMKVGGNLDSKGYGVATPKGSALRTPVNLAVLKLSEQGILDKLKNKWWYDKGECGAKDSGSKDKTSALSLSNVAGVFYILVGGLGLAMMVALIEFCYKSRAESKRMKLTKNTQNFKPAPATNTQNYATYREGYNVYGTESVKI
T2 sequence (P42261 19-906 isoform P42261-2 limits assumed): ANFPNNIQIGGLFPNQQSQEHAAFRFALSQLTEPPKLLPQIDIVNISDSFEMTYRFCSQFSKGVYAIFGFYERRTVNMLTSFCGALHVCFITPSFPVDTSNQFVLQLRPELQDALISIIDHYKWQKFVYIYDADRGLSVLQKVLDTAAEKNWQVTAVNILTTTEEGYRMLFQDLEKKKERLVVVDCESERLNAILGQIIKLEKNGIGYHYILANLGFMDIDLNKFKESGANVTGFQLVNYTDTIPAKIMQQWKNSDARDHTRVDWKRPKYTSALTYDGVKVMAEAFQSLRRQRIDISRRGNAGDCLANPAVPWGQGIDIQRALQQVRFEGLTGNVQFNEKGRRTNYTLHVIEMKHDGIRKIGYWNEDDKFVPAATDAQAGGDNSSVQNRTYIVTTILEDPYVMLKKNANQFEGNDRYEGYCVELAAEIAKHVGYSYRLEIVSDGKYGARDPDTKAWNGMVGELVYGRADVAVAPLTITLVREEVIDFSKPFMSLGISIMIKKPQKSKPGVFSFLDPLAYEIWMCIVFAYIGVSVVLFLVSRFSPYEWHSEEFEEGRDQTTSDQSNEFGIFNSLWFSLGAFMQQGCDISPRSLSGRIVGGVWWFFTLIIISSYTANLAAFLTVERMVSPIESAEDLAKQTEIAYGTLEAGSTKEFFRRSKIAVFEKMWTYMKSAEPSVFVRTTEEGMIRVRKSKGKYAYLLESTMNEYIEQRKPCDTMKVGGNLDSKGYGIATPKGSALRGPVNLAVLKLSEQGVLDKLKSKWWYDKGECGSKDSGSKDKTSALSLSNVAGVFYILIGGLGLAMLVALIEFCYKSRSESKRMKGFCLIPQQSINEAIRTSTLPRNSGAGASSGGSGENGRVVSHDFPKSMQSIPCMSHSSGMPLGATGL
T2 sequence (P42262 22-883 isoform P42262-2 limits assumed): as the sequence (P42262 22-883 isoform P42262-2 limits assumed) above

Row | inhibition of AMPA receptors (subunit GluA2/3) compared to decanoic acid [1] | inhibitory effect on AMPA receptors consisting of GluA1/2 subunits compared to decanoic acid [2] | reduction of AMPA-R generated current in comparison to the control [1] | reduction of AMPA-R generated current in comparison to decanoic acid [1] | reduction of AMPA-R generated current in comparison to 4-BCCA [1] | SMILES
1 | more potent inhibition | enhanced inhibitory effect |  |  |  | CCCCCC1CCC(CC(=O)O)CC1 (racemic) [Compound 4-PCEA, 2-(4-pentylcyclohexyl)ethanoic acid]
2 | more potent inhibition |  |  |  |  | CCCCCc1ccc(CC(=O)O)cc1 [Compound 4-PPEA, 4-pentylphenylethanoic acid]
3 |  |  | significant reduction |  |  | CC(C)CCCC1CCC(CC(=O)O)CC1 (stereo not shown) [compound 172, [4-(4-methylpentyl)cyclohexyl]acetic acid]
4 |  |  | significant reduction |  |  | CC/C=C/C1CCC(C(=O)O)CC1 (stereo not shown) [compound 174, 4-[(1E)-but-1-en-1-yl]cyclohexanecarboxylic acid]
5 |  |  | significant reduction |  |  | CCCOCC1CCC(CC(=O)O)CC1 (stereo not shown) [compound 175, 4-(propoxymethyl)cyclohexyl acetic acid]
6 |  |  | significant reduction | significant reduction | significant reduction | CCC(C)CCC1CCC(CC(=O)O)CC1 (stereo not shown) [compound 176, [4-(3-methylpentyl)cyclohexyl]acetic acid]
7 |  |  | significant reduction |  |  | CCOCC1CCC(C(=O)O)CC1 (stereo not shown) [compound 177, 4-(ethoxymethyl)cyclohexancarboxylic acid]
8 |  |  | significant reduction |  |  | CCCCC1CCC(C(=O)O)NC1 (stereo not shown) [compound 178, 5-butylpiperidine-2-carboxylic acid]
9 |  |  | significant reduction |  |  | CCNCC1CCC(CC(=O)O)CC1 (stereo not shown) [compound 179, {4-[(ethylamino)methyl]cyclohexyl}acetic acid]
10 |  |  | significant reduction |  |  | CCCOC1CCC(C(=O)O)CC1 (stereo not shown) [compound 180, 4-propoxycyclohexanecarboxylic acid]
11 |  |  | significant reduction | significant reduction | significant reduction | CC(C)CCC1CCC(C(=O)O)CC1 (stereo not shown) [compound 181, 4-(3-methylbutyl)cyclohexanecarboxylic acid]
12 |  |  | significant reduction | significant reduction | significant reduction | CCCCC=C1CCC(CC(=O)O)CC1 (stereo not shown) [compound 182, (4-pentylidenecyclohexyl)acetic acid]
13 |  |  | significant reduction | significant reduction | significant reduction | CCC(C)CC1CCC(C(=O)O)CC1 (stereo not shown) [compound 184, 4-(2-methylbutyl)cyclohexanecarboxylic acid]
14 |  |  | significant reduction | significant reduction | significant reduction | CCCC(C)CC1CCC(CC(=O)O)CC1 (stereo not shown) [compound 185, [4-(2-methylpentyl)cyclohexyl]acetic acid]
